# Test results taken from patent publication US20160257697A1, “THIOPHENE-SUBSTITUTED TETRACYCLIC COMPOUNDS AND METHODS OFUSE THEREOF FOR THE TREATMENT OF VIRAL DISEASES” (priority 2013, published 2016).
# Read-outs that look alike come from different tables or passages of the source.
# Tests used:
# Assay in all cases: microbe, parasite or virus in culture
# Format in all cases: cell-based, Hepatitis C virus (HCV)
# Conditions in all cases: Replicon Assay A
# HCV replicon 1A = system: HCV replicon 1A
# How it was run: (§1)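 HCV RNA levels were calculated from Ct values (minus intercept, divided by slope) of a Neo primer/probe standard curve, with cyclophilin quantified the same way. Cells were seeded at 2000/well and incubated with compound for 3 days in 5% serum and 0.5% DMSO.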
# HCV replicon 1AY93H = system: HCV replicon 1AY93H
# How it was run: as §1
# HCV replicon 2B = system: HCV replicon 2B
# How it was run: as §1
# [1] = Hepatitis C virus, read-out: 1A Y93H IC50 (nM), replicon 1AY93H
# [2] = Hepatitis C virus, read-out: 2B IC50 (nM), replicon 2B
# [3] = Hepatitis C virus, HCV replicon 1A
# [4] = Hepatitis C virus, read-out: 1A Y93H IC50, HCV replicon 1A Y93H
# [5] = Hepatitis C virus, read-out: 2B IC50, HCV replicon 2B
# [6] = read-out: 1A Y93H IC50, replicon 1AY93H
# [7] = read-out: 1A Y93H IC50, HCV replicon 1A Y93H
# [8] = read-out: 2B IC50, HCV replicon 2B
structure (smiles),measurement,setting,value
"CCCc1ccc(C2Oc3cc(-c4cnc([C@@H]5CCCN5C(=O)[C@@H](NC(=O)OC)C(C)C)[nH]4)cc(F)c3-c3cc4cc(-c5cnc([C@@H]6CCCN6C(=O)[C@@H](NC(=O)OC)C(C)C)[nH]5)ccc4n32)s1 (single isomer, unassigned) [Compound 33]",IC50,"HCV replicon 1A; Hepatitis C virus, replicon 1A",0.0018 nM
same,IC50,HCV replicon 1AY93H; [1],0.28 nM
same,IC50,HCV replicon 2B; [2],1.89 nM
CCN(CC)[C@@H](C(=O)N1C[C@H](F)C[C@H]1c1nc(-c2ccc3c(c2)cc2n3C(c3cc(C)c(C)s3)Oc3cc(-c4c[nH]c([C@@H]5C[C@@H](F)CN5C(=O)[C@@H](NC(=O)OC)C(C)C)n4)ccc3-2)c[nH]1)c1ccccc1 (mixture of isomers) [Compound 724],IC50,HCV replicon 1A; [3],0.063 nM
same,IC50,HCV replicon 1AY93H; [4],0.37 nM
same,IC50,HCV replicon 2B; [5],15.3 nM
"CCc1ccc(C2Oc3cc(-c4cnc([C@@H]5CCCN5C(=O)[C@@H](NC(=O)OC)C(C)C)[nH]4)cc(F)c3-c3cc4cc(-c5cnc([C@@H]6CCCN6C(=O)C(NC(=O)OC)C6CCOC(C)(C)C6)[nH]5)ccc4n32)s1 (single isomer, unassigned) [Compound 149]",IC50,HCV replicon 1A; replicon 1A,0.129 nM
same,IC50,HCV replicon 1AY93H; [6],25.9 nM
same,IC50,"HCV replicon 2B; read-out: 2B IC50, replicon 2B",24.8 nM
"COC(=O)N[C@H](C(=O)N1CCC[C@H]1c1ncc(-c2cc(F)c3c(c2)OC(c2ccc(C(=O)N(C)C)s2)n2c-3cc3cc(-c4cnc([C@@H]5CCCN5C(=O)[C@@H](NC(=O)OC)C(C)C)[nH]4)ccc32)[nH]1)C(C)C (single isomer, unassigned) [Compound 103]",IC50,"HCV replicon 1A; Hepatitis C virus, replicon 1A",0.0056 nM
same,IC50,HCV replicon 1AY93H; [6],5.15 nM
same,IC50,"HCV replicon 2B; read-out: 2B IC50, replicon 2B",1.71 nM
"COC(=O)NC(C(=O)N1CCC[C@H]1c1ncc(-c2ccc3c(c2)cc2n3C(c3ccc(C4CC4)s3)Oc3cc(-c4cnc([C@@H]5C[C@@H](F)CN5C(=O)[C@@H](NC(=O)OC)C(C)C)[nH]4)cc(F)c3-2)[nH]1)C(C)(C)F (single isomer, unassigned) [Compound 112]",IC50,HCV replicon 1A; replicon 1A,0.0022 nM
same,IC50,HCV replicon 1AY93H; [6],0.23 nM
same,IC50,"HCV replicon 2B; read-out: 2B IC50, replicon 2B",7.07 nM
"COC(=O)N[C@H](C(=O)N1CCC[C@H]1c1ncc(-c2ccc3c(c2)OC(c2cc4sccc4s2)n2c-3cc3cc(-c4c[nH]c([C@@H]5C[C@H]6C[C@H]6N5C(=O)[C@@H](NC(=O)OC)C(C)C)n4)ccc32)[nH]1)C(C)C (single isomer, unassigned) [Compound 717]",IC50,HCV replicon 1A; HCV replicon 1A,0.024 nM
same,IC50,HCV replicon 1AY93H; [7],0.2 nM
same,IC50,HCV replicon 2B; [8],1.16 nM
"COC(=O)NC(C(=O)N1CCC[C@H]1c1ncc(-c2ccc3c(c2)cc2n3C(c3ccc(C4CC4)s3)Oc3cc(-c4cnc([C@@H]5CCCN5C(=O)[C@@H](NC(=O)OC)C(C)C)[nH]4)cc(F)c3-2)[nH]1)C1CCO[C@H](C)C1 (single isomer, unassigned) [Compound 140]",IC50,HCV replicon 1A; replicon 1A,0.0407 nM
same,IC50,HCV replicon 1AY93H; [6],5.51 nM
same,IC50,"HCV replicon 2B; read-out: 2B IC50, replicon 2B",8.69 nM
"COC(=O)N[C@H](C(=O)N1CCC[C@H]1c1ncc(-c2cc(F)c3c(c2)OC(c2ccsc2)n2c-3cc3cc(-c4cnc([C@@H]5CCCN5C(=O)[C@@H](NC(=O)OC)C(C)C)[nH]4)ccc32)[nH]1)C(C)C (single isomer, unassigned) [Compound 318]",IC50,HCV replicon 1A; replicon 1A,0.0019 nM
same,IC50,HCV replicon 1AY93H; [6],5.9 nM
same,IC50,"HCV replicon 2B; read-out: 2B IC50, replicon 2B",6.87 nM
"COC(=O)N[C@H](C(=O)N1CCC[C@H]1c1ncc(-c2ccc3c(c2)OC(c2cc4ccccc4s2)n2c-3cc3cc(-c4cnc([C@@H]5C[C@@H](F)CN5C(=O)[C@@H](NC(=O)OC)C5CCOCC5)[nH]4)ccc32)[nH]1)C(C)C (single isomer, unassigned) [Compound 626]",IC50,HCV replicon 1A; [3],0.00209 nM
same,IC50,HCV replicon 1AY93H; [7],0.013 nM
same,IC50,HCV replicon 2B; [8],0.179 nM
"CCc1ccc(C2Oc3cc(-c4cnc([C@@H]5CCCN5C(=O)[C@@H](NC(=O)OC)C(C)C)[nH]4)cc(F)c3-c3cc4cc(-c5cnc([C@@H]6C[C@H]7C[C@H]7N6C(=O)C(NC(=O)OC)C6C[C@@H](C)O[C@@H](C)C6)[nH]5)ccc4n32)s1 (single isomer, unassigned) [Compound 194]",IC50,"HCV replicon 1A; Hepatitis C virus, replicon 1A",0.0019 nM
same,IC50,HCV replicon 1AY93H; [1],0.095 nM
same,IC50,HCV replicon 2B; [2],0.63 nM
"COC(=O)NC(C(=O)N1CCCC1c1ncc(-c2cc(F)c3c(c2)OC(c2ccc(C4CCC4)s2)n2c-3cc3cc(-c4cnc(C5CCCN5C(=O)C(NC(=O)OC)C5CC(C)OC(C)C5)[nH]4)ccc32)[nH]1)C(C)C (single isomer, unassigned) [Compound 373]",IC50,HCV replicon 1A; replicon 1A,0.001 nM
same,IC50,"HCV replicon 1AY93H; replicon 1AY93H, read-out: 1A Y93H IC50",0.248 nM
same,IC50,"HCV replicon 2B; replicon 2B, read-out: 2B IC50",0.156 nM
COC(=O)N[C@H](C(=O)N1CCC[C@H]1c1nc(-c2cc(F)c3c(c2)OC(c2ccc(C4CC4)s2)n2c-3cc3cc(-c4c[nH]c([C@@H]5C[C@H]6C[C@H]6N5C(=O)[C@@H](NC(=O)OC)[C@@H](C)OC)n4)ccc32)c[nH]1)C(C)C (mixture of isomers) [Compound 723],IC50,HCV replicon 1A; [3],0.0027 nM
same,IC50,HCV replicon 1AY93H; [4],0.046 nM
same,IC50,HCV replicon 2B; [5],0.08 nM
